This is an account of results in US7420043B2, “Reagents for detecting efavirenz” (priority 2003, dated 2008).

The test system of data set [1] is monoclonal antibody EFA 97.1. Description: Cross-reactivity assay (competitive ELISA, ED50 ratio). Format: binding, mouse. The following applies: ED50 of efavirenz divided by ED50 of the drug, times 100. An excerpt: Supernatants were subjected to serial dilutions and retested in the ELISA screen above omitting the competitive inhibition with free drug. The dilution providing for approximately a 50% reduction from the maximum OD was chosen for proceeding to cross-reactivity testing. This comprised repeating the preceding assay with the antibody at the chosen dilution and in the presence of varying concentrations of different drugs. FIG. 8 presents the results of such a determination.

Another data set relates to HIV. The following applies: cited from earlier work.
The conditions of data set [2]: cited from earlier work.
The conditions of data set [3]: Physician's Desk Reference; cited from earlier work.

Where two headings read alike, the source gives them in different places.

Turning to `Cc1cn([C@H]2C=C[C@@H](CO)O2)c(=O)[nH]c1=O` [2′,3′-didehydro-3′-deoxythymidine], the “% Cross-reactivity” value in data set [1] is 0%.
For `Cc1cn([C@H]2C[C@H](N=[N+]=[N-])[C@@H](CO)O2)c(=O)[nH]c1=O` [3′-azido-3′-deoxythymidine], the “% Cross-reactivity” value in data set [1] came out at 0%.
Turning to `CC(C)CN(C[C@@H](O)[C@H](Cc1ccccc1)NC(=O)O[C@H]1CCOC1)S(=O)(=O)c1ccc(N)cc1` [amprenavir], the “% Cross-reactivity” value in data set [1] came to 0%.
In the case of `COC(=O)N[C@H](C(=O)N[C@@H](Cc1ccccc1)[C@@H](O)CN(Cc1ccc(-c2ccccn2)cc1)NC(=O)[C@@H](NC(=O)OC)C(C)(C)C)C(C)(C)C` [atazanavir], the “% Cross-reactivity” value in data set [1] turned out to be 0%.
For the compound `CC(C)Nc1cccnc1N1CCN(C(=O)c2cc3cc(NS(C)(=O)=O)ccc3[nH]2)CC1` [delaviridine], the “% Cross-reactivity” value in data set [1] worked out at 0%.
For the compound `O=C1Nc2ccc(Cl)cc2[C@@](C#CC2CC2)(C(F)(F)F)O1` [efavirenz], the “virological failure, % of patients” value in the data set on HIV (patients with low plasma levels of efavirenz, <1000 μg/L, 85 total patients) is 50%; in the data set with HIV (plasma levels 1000-4000 μg/L or more than 4000 μg/L), 18-22%. Further, the “CNS toxicity frequency, high versus mid plasma levels” value in data set [2] (>4000 μg/L compared with 1000-4000 μg/L) is listed as “approximately three times more frequent”. In addition, the “patients discontinuing therapy because of severity or persistence of CNS side effects” value in data set [2] (patients receiving efavirenz) is “about 4%”. In data set [2] (patients receiving efavirenz), the “patients reporting CNS side effects (dizziness, hallucinations, nightmares, insomnia)” value is 20-40%. In addition, the peak levels in data set [3] was 12.9 µM. The “% Cross-reactivity” value in data set [1] is given as 100%.
Regarding `CC(C)(C)NC(=O)[C@@H]1CN(Cc2cccnc2)CCN1C[C@@H](O)C[C@@H](Cc1ccccc1)C(=O)N[C@H]1c2ccccc2C[C@H]1O` [indinavir], the “% Cross-reactivity” value in data set [1] turned out to be 0%.
On the same count and under the same terms, for `Cc1cccc(C)c1OCC(=O)N[C@@H](Cc1ccccc1)[C@@H](O)C[C@H](Cc1ccccc1)NC(=O)[C@H](C(C)C)N1CCCNC1=O` [lopinavir] the value was 0%; for `Cc1c(O)cccc1C(=O)N[C@@H](CSc1ccccc1)[C@H](O)CN1C[C@H]2CCCC[C@H]2C[C@H]1C(=O)NC(C)(C)C` [nelfinavir], 0%; for `Cc1ccnc2c1NC(=O)c1cccnc1N2C1CC1` [nevirapine], 0%.
Turning to `CC(C)c1nc(CN(C)C(=O)N[C@H](C(=O)N[C@@H](Cc2ccccc2)C[C@H](O)[C@H](Cc2ccccc2)NC(=O)OCc2cncs2)C(C)C)cs1` [ritonavir], the “% Cross-reactivity” value in data set [1] was 0%.
As for `CC(C)(C)NC(=O)[C@@H]1C[C@@H]2CCCC[C@@H]2CN1C[C@@H](O)[C@H](Cc1ccccc1)NC(=O)[C@H](CC(N)=O)NC(=O)c1ccc2ccccc2n1` [saquinavir], in data set [1], the “% Cross-reactivity” value is on record as 0%.
